Measured values taken from patent US5578634A, “1H-indole-3-acetic acid hydrazide sPLA2 inhibitors” (Eli Lilly and Company, priority 1995, dated 1996).

Assays:
[1] = target: T1, sPLA2 contraction (Homo sapiens, UniProt P14555); assay: sPLA2-induced contraction of guinea pig lung pleural strips, tissue test (Assay Example 2); design: species or system Male Hartley strain guinea pigs; key to transient contraction of tissue during test: *: indicates transient contraction of tissue during test; conditions: for inhibition at 10 µM / inhibition at 30 µM: guinea pig, sPLA2 10 ug/ml; for inhibition at 10 µM: compound concentration 10 uM, read-out: % suppression of sPLA2 contraction at 10 uM; for inhibition at 30 µM: compound concentration 30 uM, read-out: % suppression of sPLA2 contraction at 30 uM
T1 sequence (P14555 21-144): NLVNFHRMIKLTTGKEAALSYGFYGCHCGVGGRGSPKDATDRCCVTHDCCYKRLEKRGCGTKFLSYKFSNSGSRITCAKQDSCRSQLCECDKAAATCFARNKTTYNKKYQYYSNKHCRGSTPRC
Text: Male Hartley strain guinea pigs (500-700 g) were killed by cervical dislocation and their heart and lungs removed intact and placed in aerated (95% O2 :5% CO2) Krebs buffer. Dorsal pleural strips (4×1×25 mm) were dissected from intact parenchymal segments (8×4×25 mm) cut parallel to the outer edge of the lower lung lobes. Two adjacent pleural strips, obtained from a single lobe and representing a single tissue sample, were tied at either end and independently attached to a metal support rod. One rod was attached to a Grass force-displacement transducer (Model FTO3C, product of Grass Medical Instruments Co., Quincy, Mass., USA). […] All tissues were placed in 10 ml jacketed tissue baths maintained at 37° C. The tissue baths were continuously aerated and contained a modified Krebs solution of the following composition (millimolar) NaCl, 118.2; KCl, 4.6; CaCl2.2H2 O, 2.5; MgSO4.7H2 O, 1.2; NaHCO3, 24.8; KH2 PO4, 1.0; and dextrose, 10.0. Pleural strips from the opposite lobes of the lung were used for paired experiments. […] The tissues were allowed to equilibrate for 45 min. as the bath fluid was changed periodically. Cumulative concentration-response curves: Initially tissues were challenged 3 times with KCl (40 mM) to test tissue viability and to obtain a consistent response. After recording the maximal response to KCl the tissues were washed and allowed to return to baseline before the next challenge. Cumulative concentration-response curves were obtained from pleural strips by increasing the agonist concentration (sPLA2) in the tissue bath by half-log10 increments while the previous concentration remained in contact with the tissues (Ref.1, supra.) Agonist concentration was increased after reaching the plateau of the contraction elicited by the preceding concentration. One concentration-response curve was obtained from each tissue. To minimize variability between tissues obtained from different animals, contractile responses were expressed as a percentage of the maximal response obtained with the final KCl challenge. When studying the effects of various drugs on the contractile effects of sPLA2, the compounds and their respective vehicles were added to the tissues 30 min. prior to starting the sPLA2 concentration-response curves. statistical analysis: Data from different experiments were pooled and presented as a percentage of the maximal KCl responses (mean±S.E.). To estimate the drug induced rightward shifts in the concentration response curves, the curves were analyzed simultaneously using statistical nonlinear modeling methods similar to those described by Waud (1976), Equation 26, p. 163, (Ref.2). The model includes four parameters: the maximum tissue response which was assumed the same for each curve, the ED50 for the control curve, the steepness of the curves, and the PA2, the concentration of antagonist that requires a two-fold increase in agonist to achieve an equivalent response. The Schild slope was determined to be 1, using statistical nonlinear modeling methods similar to those described by Waud (1976), Equation 27, p. 164 (Ref. 2). […] To estimate the drug-induced suppression of the maximal responses, sPLA2 responses (10 ug/ml) were determined in the absence and presence of drug, and percent suppression was calculated for each pair of tissues. Ref. 1--van Rossum, J. M.: Cumulative dose-response curves. II. Technique for the making of dose-response curves in isolated organs and the evaluation of drug parameters. Arch. Int. Pharmacodyn. Ther. 143: 299-330, 1963. Ref. 2--Waud, D.: Analysis of dose-response relationships. in Advances in General and Cellular Pharmacology […]

[2] = target: T2, human secreted PLA2 (Homo sapiens, UniProt P14555); assay: chromogenic assay of recombinant human secreted phospholipase A2 inhibition (Assay Example 1); type: biochemical; conditions: mean of 3-5 tests; 40° C., 30 minutes, pH 7.5, 405 nanometers; read-out: Inhibition of human secreted PLA2 IC50 ± mean deviation (3-5 tests)
T2 sequence (P14555 21-144): T1 sequence (P14555 21-144)
Text: The assay described herein has been adapted for high volume screening using 96 well microtiter plates. A general description of this assay method is found in the article, "Analysis of Human Synovial Fluid Phospholipase A2 on Short Chain Phosphatidylcholine-Mixed Micelles: Development of a Spectrophotometric Assay Suitable for a Microtiterplate Reader", by Laure J. Reynolds, Lori L. […] Reagents, the disclosure of which is incorporated herein by reference. REACTION BUFFER CaCl2.2H20 (1.47 g/L) KCl (7.455 g/L) Bovine Serum Albumin (fatty acid free) (1 g/L) (Sigma A-7030, product of Sigma Chemical Co. St. Louis Mo., USA) TRIS HCl (3.94 g/L) pH 7.5 (adjust with NaOH) ENZYME BUFFER […] 0.2 NaCl Adjust pH to 4.5 with acetic acid DTNB […] RACEMIC DIHEPTANOYL THIO - PC […] TRITON X-100™ prepare at 6.249 mg/ml in reaction buffer to equal […]. REACTION MIXTURE A measured volume of racemic dipheptanoyl thio PC supplied in chloroform at a concentration of 100 mg/ml is taken to dryness and redissolved in 10 millimolar TRITON X-100™ nonionic detergent aqueous solution. Reaction Buffer is added to the solution, then DTNB to give the Reaction Mixture. The reaction mixture thus obtained contains 1 mM diheptanoly thio-PC substrate, 0.29 mM Triton X-100™ detergent, and 0.12 mM DTMB in a buffered aqueous solution at pH 7.5. Assay Procedure: 1. Add 0.2 ml reaction mixture to all wells; 2. Add 10 ul test compound (or solvent blank) to appropriate wells, mix 20 seconds; 3. Add 50 nanograms of sPLA2 (10 microliters) to appropriate wells; 4. Incubate plate at 40° C. for 30 minutes; […] Read absorbance of wells at 405 nanometers with an automatic plate reader. All compounds were tested in triplicate. Typically, compounds were tested at a final concentration of 5 ug/ml. […] Lack of color development at 405 nanometers evidenced inhibition. Compounds initially found to be active were reassayed to confirm their activity and, if sufficiently active, IC50 values were determined. […] In all cases, % inhibition measured at 405 nanometers generated by enzyme reactions containing inhibitors relative to the uninhibited control reactions was determined. Each sample was titrated in triplicate and result values were averaged for plotting and calculation of IC50 values. […] IC50 values were determined at least three times for each compound tested.

transient contraction of tissue during test ([1]; footnote * of Table 2) | inhibition at 10 µM [1] | inhibition at 30 µM [1] | IC50 [2] | SMILES
* | 70.7 ± 6.4% | 98 ± 1.5% | 1.02 ± 0.18 µM | COc1ccc2c(c1)c(CC(=O)NN)c(C)n2Cc1cccc(Cl)c1 [Example 18, 1-(3-Chlorophenylmethyl)-5-methoxy-2-methyl-1H-indole-3-acetic acid hydrazide]
– | – | 87.4 ± 9.3% | 0.43 ± 0.03 µM | COc1ccc2c(c1)c(CC(=O)NN)c(Br)n2Cc1ccccc1 [Example 44, 2-Bromo-5-methoxy-1-(phenylmethyl)-1H-indole-3-acetic acid hydrazide]
– | – | 72.3 ± 4.5% | 1.39 ± 0.69 µM | Cc1c(CC(=O)NN)c2cc(O)ccc2n1Cc1ccccc1 [Example 61, 5-Hydroxy-2-methyl-1-(phenylmethyl)-1H-indole-3-acetic acid hydrazide]
– | 55.2 ± 6.6% | 83.9 ± 3.2% | 0.86 ± 0.12 µM | COc1ccc2c(c1)c(CC(=O)NN)c(C)n2Cc1ccccc1 [Example 16, 5-Methoxy-2-methyl-1-(phenylmethyl)-1H-indole-3-acetic acid hydrazide]
– | – | 91.3 ± 6% | 0.39 ± 0.03 µM | COc1ccc2c(c1)c(CC(=O)NN)c(Cl)n2Cc1ccccc1 [Example 43, 2-Chloro-5-methoxy-1-(phenylmethyl)-1H-indole-3-acetic acid hydrazide]
– | 41.2 ± 3.8% | 48 ± 7% | 0.36 ± 0.03 µM | Cc1c(CC(=O)NN)c2cc(C(=O)O)ccc2n1Cc1cccc(Cl)c1 [Example 68, 5-Carboxy-1-[(3-chlorophenyl)methyl]-2-methyl-1H-indole-3-acetic acid hydrazide]
– | – | 66.3 ± 5.9% | 0.93 ± 0.55 µM | Cc1c(CC(=O)NN)c2ccc(-c3ccccc3)cc2n1Cc1ccccc1 [Example 57, 2-Methyl-6-phenyl-1-(phenylmethyl)-1H-indole-3-acetic acid hydrazide]
– | – | 21.2 ± 12.5% | 70.5 ± 2.89 µM | CCCc1c(CC(=O)NN)c2cc(OC)ccc2n1Cc1ccccc1 [Example 5, 5-Methoxy-1-(phenylmethyl)-2-propyl-1H-indole-3-acetic acid hydrazide]
– | – | 47.5 ± 13.4% | 3 ± 1.4 µM | COc1ccc2c(c1)c(CC(=O)NN)c(C)n2Cc1cccc(O)c1 [Example 31, 1-[(3-Hydroxyphenyl)methyl]-5-methoxy-2-methyl-1H-indole-3-acetic acid hydrazide]
